Reference: publication PMC6934184, “Selective DNA-PKcs inhibition extends the therapeutic index of localized radiotherapy and chemotherapy” (The Journal of Clinical Investigation, 2019)

Molecular target: T1, LYN A (Homo sapiens, UniProt P07948)
T1 construct: purchased Thermo Fisher Scientific (Life Technologies) SelectScreen
Test: SelectScreen Z'LYTE
Assay type: biochemical
Method in brief: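 SelectScreen broad panel; activity (Z'LYTE, Adapta) plus binding formats. ATP: Km app for CSF1R Z'LYTE; 10 for CAMK1 Adapta. Readout = % per kinase.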

T1 sequence (P07948 whole entry): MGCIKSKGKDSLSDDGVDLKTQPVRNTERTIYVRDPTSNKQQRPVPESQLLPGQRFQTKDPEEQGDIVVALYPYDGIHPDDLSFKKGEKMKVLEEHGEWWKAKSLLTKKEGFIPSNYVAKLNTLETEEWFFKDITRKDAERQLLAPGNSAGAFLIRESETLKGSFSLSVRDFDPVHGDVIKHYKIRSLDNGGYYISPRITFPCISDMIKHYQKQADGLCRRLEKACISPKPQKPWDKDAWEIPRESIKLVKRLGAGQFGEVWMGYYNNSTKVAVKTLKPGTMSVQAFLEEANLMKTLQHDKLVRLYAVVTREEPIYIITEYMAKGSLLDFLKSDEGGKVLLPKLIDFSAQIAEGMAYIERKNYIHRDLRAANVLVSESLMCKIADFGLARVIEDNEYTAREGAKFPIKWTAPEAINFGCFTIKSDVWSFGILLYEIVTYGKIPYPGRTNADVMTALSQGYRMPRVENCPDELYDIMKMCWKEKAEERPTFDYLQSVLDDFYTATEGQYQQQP

## CN(C(=O)CN1CCOCC1)c1ccc2sc3c(-c4cccc5c(=O)cc(N6CC7CCC(C6)O7)oc45)cccc3c2c1 [NU5455]
  inhibition at 1 µM: 15.2%
